We go through 17 compounds from BindingDB's records for patent US20240300941 (Zhuhai Yufan Biotechnologies, 2024).

Each structure is given as a SMILES string. Where only a bound is given, the exact number is not on record here.

In the experiment the target is Mitogen-activated protein kinase kinase kinase kinase 1 (Homo sapiens, UniProt Q92918). Put plainly: HPK1 ADP-Glo Enzyme Assay. How it is done: The buffer used in the enzyme assay contains 5 mM MOPS (pH=7.2), 2.5 mM β-Glycerol Phosphate, 0.4 mM EDTA, 1 mM EGTA, 0.05 mM DTT, 5 mM MgCl2. The compound was dissolved in 100% DMSO at the concentration was 10 mM. The initial concentration of the test was 5 uM, and ten data points were diluted by three-fold gradient, and each point was repeatedly measured twice. The HPK1 protein was purchased from Thermo (Cat. No. PV6355) and diluted to 2× stock solution at the concentration of 10 nM (the final concentration of the enzyme assay was 5 nM). 2.5 µl of 2×HPK1 protein was added to each well of the plate containing the test compound, centrifuged at 1000 rpm for 30 seconds, and then incubated at 25° C. for 15 minutes. MBP protein was purchased from Millipore (Cat. No. 13-110) and ATP was purchased from Sigma (Cat. No. A7699-5G) and the two were formulated into 2× working solutions at concentrations of 4 uM and 80 uM. Added 2.5 μl mixture of 2×MBP and ATP, centrifuged at 1000 rpm for 30 seconds, then incubated at 25° C. for 90 minutes. Then added 5 ul of ADP-Glo (Promega, Cat. No. V9102) to the assay plate and incubated […] at 25° C. for 60 minutes. Finally, 10 ul of the kinase assay reagent (Promega, Cat. No. V9102) was added to the assay plate, centrifuged at 1000 rpm for 30 seconds at 25° C. for 60 minutes, and the […] was determined.
Chain of Mitogen-activated protein kinase kinase kinase kinase 1 (Q92918 whole entry): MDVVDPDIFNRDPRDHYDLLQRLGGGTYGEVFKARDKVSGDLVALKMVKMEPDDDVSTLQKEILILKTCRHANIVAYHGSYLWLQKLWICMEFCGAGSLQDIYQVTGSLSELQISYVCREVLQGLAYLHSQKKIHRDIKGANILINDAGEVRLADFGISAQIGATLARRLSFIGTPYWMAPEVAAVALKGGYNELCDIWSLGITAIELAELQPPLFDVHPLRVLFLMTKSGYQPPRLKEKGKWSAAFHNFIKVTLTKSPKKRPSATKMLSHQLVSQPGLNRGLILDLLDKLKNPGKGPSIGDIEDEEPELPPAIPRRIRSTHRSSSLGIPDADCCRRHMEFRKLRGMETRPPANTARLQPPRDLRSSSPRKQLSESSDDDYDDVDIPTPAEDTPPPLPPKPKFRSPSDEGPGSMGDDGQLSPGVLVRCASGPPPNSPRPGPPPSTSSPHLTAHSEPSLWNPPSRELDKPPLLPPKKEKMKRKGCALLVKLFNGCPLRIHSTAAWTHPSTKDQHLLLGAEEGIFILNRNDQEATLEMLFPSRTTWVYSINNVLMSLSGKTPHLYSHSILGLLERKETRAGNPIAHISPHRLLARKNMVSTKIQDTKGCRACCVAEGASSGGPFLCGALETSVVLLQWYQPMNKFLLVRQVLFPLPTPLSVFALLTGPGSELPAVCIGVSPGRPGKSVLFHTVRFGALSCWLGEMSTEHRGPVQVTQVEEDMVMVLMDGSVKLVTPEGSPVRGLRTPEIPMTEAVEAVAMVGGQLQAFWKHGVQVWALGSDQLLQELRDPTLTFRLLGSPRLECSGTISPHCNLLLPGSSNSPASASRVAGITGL
(In general: ADP-Glo turns the ADP formed in a reaction into a luminescent signal.)
In general, IC50 refers to the concentration at which inhibition is half-maximal. `CN1CCC(c2ncc(-c3cnc(N)c(OCc4cccc(C#CC(C)(C)O)c4)c3)s2)CC1` [US20240300941, Compound A3]: the IC50 is < 0.1 µM.

`CN1CCC(c2ncc(-c3cnc(N)c(OC(C)(C)c4ccncc4)c3)s2)CC1` [US20240300941, Compound A6]: the IC50 was > 1 µM.

Regarding `Nc1ncc(-c2cnc(C3CCNCC3)s2)cc1OCc1ccncc1` [US20240300941, Compound A7], the half-inhibitory concentration (IC50) was < 0.1 µM.

For `CN1CCC(c2ncc(-c3cnc(N)c(OCc4ccnc(Cl)c4)c3)s2)CC1` [US20240300941, Compound A8], the concentration for half-maximal inhibition (IC50) is < 0.1 µM.

For the compound `COc1ccc(COc2cc(-c3cnc(C4CCN(C)CC4)s3)cnc2N)cc1` [US20240300941, Compound A9], the IC50 is > 1 µM.

Regarding `CN1CCC(c2ncc(-c3cnc(N)c(OCc4ccnc(C#CC(C)(C)O)c4)c3)s2)CC1` [US20240300941, Compound A10], the IC50 is < 0.1 µM.

Turning to `CN1CCN(c2ncc(-c3cnc(N)c(OCc4ccncc4)c3)s2)CC1` [US20240300941, Compound A12], the IC50 was < 0.1 µM.

Consider `Nc1ncc(-c2cnc(C3CCOCC3)s2)cc1OCc1ccncc1` [US20240300941, Compound A13], for which the IC50 was < 0.1 µM.

`CN1CCC(n2cc(-c3cnc(N)c(OCc4ccncc4)n3)c(N)n2)CC1` [US20240300941, Compound A14] returned an IC50 of 0.1 to 1 µM.

Turning to `CN1CCC(c2ncc(-c3cnc(N)c(OCc4cccc(C#CC5(O)CCCC5)c4)c3)s2)CC1` [US20240300941, Compound A34], the 50% inhibitory concentration (IC50) was < 0.1 µM.

Turning to `CC(C)c1ncc(-c2cnc(N)c(OCc3ccncc3)c2)s1` [US20240300941, Compound A36], the IC50 is < 0.1 µM.

`Nc1ncc(-c2cnc(C3CCCCC3)s2)cc1OCc1ccncc1` [US20240300941, Compound A37]: the IC50 is < 0.1 µM.

`CN1CCC(c2ncc(-c3cnc(N)c(OCc4cccc(C#CC5(O)CCCCC5)c4)c3)s2)CC1` [US20240300941, Compound A38]: the IC50 is > 1 µM.

Take `CN1CCC(c2ncc(-c3cnc(N)c(OCc4cccc(C#CC5(O)CCC5)c4)c3)s2)CC1` [US20240300941, Compound A40]: the IC50 is < 0.1 µM.

As for `CC(C)c1ncc(-c2cnc(N)c(OCc3cccc(C#CC(C)(C)O)c3)c2)s1` [US20240300941, Compound A41], the IC50 was < 0.1 µM.

For the compound `CC(C)(O)C#Cc1cccc(COc2cc(-c3cnc(C4CCNCC4)s3)cnc2N)c1` [US20240300941, Compound A42], the 50% inhibitory concentration (IC50) is < 0.1 µM.

Consider `Cc1nc(C2CCN(C)CC2)sc1-c1cnc(N)c(OCc2cccc(C#CC(C)(C)O)c2)c1` [US20240300941, Compound A62], for which the concentration for half-maximal inhibition (IC50) lay within 0.1 to 1 µM.
